From patent US4122204A, “N-(4-tert-butylphenylthiosulfenyl)-N-alkyl aryl carbamate compounds” (priority 1976, dated 1978)
In brackets after ≈: the same amount, converted by molar mass. Like-named read-outs stand apart in the source and are kept apart here.

Assays:
[1] = test system: Mexican bean beetle (Epilachna varivestis, Muls.); assay: Mexican Bean Beetle Leaf Spray Test; format: in vivo; details: for LC50: Epilachna varivestis, 72 h, read-out: Mexican Bean Beetle LD50
Procedure: (§1) Suspensions of the test compounds were prepared by dissolving one gram of compound in 50 milliliters of acetone in which had been dissolved 0.1 gram (10 percent of the weight of compound) of an alkylphenoxy polyethoxyethanol surfactant, as an emulsifying or dispersing agent. The resulting solution was mixed into 150 milliliters of water to give roughly 200 milliliters of a suspension containing the compound in finely divided form. The thus-prepared stock suspension contained 0.5 percent by weight of test compound. The test concentration in parts per million by weight employed in the tests described hereinbelow were obtained by appropriate dilutions of the stock suspension with water. The test procedures were as follows:
Fourth instar larvae of the Mexican bean beetle (Epilachna varivestis, Muls.), reared on Tendergreen bean plants at a temperature of 80°±5° F. and 50±5 percent relative humidity, were the test insects.
The test compounds were formulated by diluting the stock suspension with water to give a suspension containing 500 parts of test compound per million parts of final formulation. Potted Tendergreen bean plants of standard height and age were placed on a revolving turntable and sprayed with 100-110 milliliters of test compound formulation by use of a DeVilbiss spray gun set at 10 psig air pressure. This application, which lasted 25 seconds, was sufficient to wet plants to run-off. As a control, 100-110 milliliters of a water-acetone-emulsifier solution containing no test compound were also sprayed on infested plants. When dry, the paired leaves were separated and each was placed in a 9 centimeter Petri dish lined with moistened filter paper. Five randomly selected larvae were introduced into each dish, and the dishes were closed. The closed dishes were labeled and held at a temperature of 80°±5° F. for three days. Although the larvae could easily consume the leaf within 24 to 48 hours, no more food was added. Larvae which were unable to move the length of the body, even upon stimulation, were considered dead.

[2] = test system: house flies (Musca domestica, L.); assay: Fly Bait Test; format: in vivo; details: 24 h, read-out: House Fly LD50
Procedure: as §1
Four to six day old adult house flies (Musca domestica, L.), reared according to the specifications of the Chemical Specialities Manufacturing Association (Blue Book, McNair-Dorland Co., N.Y. 1954; pages 243-244, 261) under controlled conditions of 80°±5° F. and 50±5 percent relative humidity, were the test insects. The flies were immobilized by anesthetizing with carbon dioxide and twenty five immobilized individuals, males and females, were transferred to a cage consisting of a standard food strainer about five inches in diameter which was inverted over a wrapping-papercovered surface. The test compounds were formulated by diluting the stock suspension with a 10 percent (by weight) sugar solution to give a suspension containing 500 parts of test compound per million parts of final formulation, by weight. Ten milliliters of the test formulation were added to a souffle cup containing a one-inch square of an absorbent cotton pad. This bait cup was introduced and centered on the blotting paper under the food strainer prior to admitting the anesthetized flies. The caged flies were allowed to feed on the bait for twenty four hours, at a temperature of 80°±5° F. and the relative humidity of 50±5 percent.

[3] = test system: two-spotted mite (Tetranychus urticae Koch); assay: Mite Foliage Spray Test; format: in vivo; details: foliar, 144 h, read-out: Mite LD50
Procedure: as §1
Adults and numphal stages of the two-spotted mite (Tetranychus urticae Koch), reared on Tendergreen bean plants at 80±5 percent relative humidity, were the test organisms. Infested leaves from a stock culture were placed on the primary leaves of two bean plants six to eight inches in height, growing in a two-and-a-half inch clay pot. 150-200 Mites, a sufficient number for testing, transferred from the excised leaves to the fresh plants in a period of twenty four hours. Following the twenty four hour transfer period, the excised leaves were removed from the infested plants. The test compounds were formulated by diluting the stock suspension with water to give a suspension containing 500 parts of test compound per million parts of final formulation. The potted plants (one pot per compound) were placed on a revolving turntable and sprayed with 100-110 milliliters of test compound formulation by use of a DeVilbiss spray gun set at 40 psig. air pressure. This application, which lasted 25 seconds, was sufficient to wet the plants to run-off. As a control, 100-110 milliliters of a water solution containing acetone and emulsifier in the same concentrations as the test compound formulation, but containing no test compound, were also sprayed on infested plants. The sprayed plants were held at 80±5 percent relative humidity for six days, after which a mortality countr of motile forms was made. Microscopic examination for motile forms was made on the leaves of the test plants. Any individual which was capable of locomotion upon prodding was considered living.

[4] = test system: southern armyworm (Prodenia eridania, (Cram.)); assay: Southern Armyworm Leaf Spray Test; format: in vivo; details: for LC50: Spodoptera eridania, 72 h, read-out: Southern Armyworm LD50
Procedure: as §1
Larvae of the southern armyworm (Prodenia eridania, (Cram.)), reared on Tendergreen bean plants at a temperature of 80°±5° F. and a relative humidity of 50±5 percent, constituted the test insects.
The test compounds were formulated by diluting the stock suspension with water to give a suspension containing 500 parts of test compound per million parts of final formulation. Potted Tendergreen bean plants of standard height and age were placed on a revolving turntable and sprayed with 100-110 milliliters of test compound formulation by use of a DeVilbiss spray gun set at 10 psig air pressure. This application, which lasted 25 seconds, was sufficient to wet plants to run-off. As a control, 100-110 milliliters of a water-acetone-emulsifier solution containing no test compound were also sprayed on infested plants. When dry, the paired leaves were separated and each one was placed in a 9 centimeter Petri dish lined with moistened filter paper. Five randomly selected larvae were introduced into each dish and the dishes were closed. The closed dishes were labeled and held at 80-85° F. for three days. Although the larvae could easily consume the whole leaf within twenty-four hours, no more food was added. Larvae which were unable to move the length of the body, even upon stimulation by prodding, were considered dead. Percent mortality was recorded for various concentration levels.

[5] = test system: rat; assay: in vivo; details: for mammalian toxicity (in words): rat, in vivo
Procedure: (§2) These compounds were also evaluated to determine their peroral toxicity to mammals by conventional methods. The animal selected for this experiment was the rat.
(§3) The toxicity is reported in […] required for a 50% kill (LD50).

[6] = in vivo; details: rat, in vivo, po
Procedure: as §2, §3

[7] = test system: bean aphid (Aphis fabae Scop.); assay: Bean Aphid Foliage Spray Test; format: in vivo; details: for LC50: Aphis fabae, foliar, read-out: Aphid LD50
Procedure: as §1
Adults and nymphal stages of the bean aphid (Aphis fabae Scop.) reared on potted dwarf nasturtium plants at 65°-70° F. and 50-70 percent relative humidity, constituted the test insects. For testing purposes, the number of aphids per pot was standardized to 100-150 by trimming plants containing excess aphids.
The test compounds were formulated by diluting the stock suspension with water to give a suspension containing 500 parts of test compound per million parts of final formulation.
The potted plants (one pot per compound tested) infested with 100-150 aphids, were placed on a revolving turntable and sprayed with 100-110 milliliters of test compound formulation by use of a DeVilbiss spray gun set at 40 psig. air pressure. This application, which lasted 25 seconds, was sufficient to wet the plants to run-off. As a control, 100-110 milliliters of a water-acetone-emulsifier solution containing no test compound were also sprayed on infested plants. After spraying, the pots were placed on their sides on a sheet of white standard mimeograph paper which had been previously ruled to facilitate counting. Temperature and humidity in the test room during the 24 hour holding period were 65°-70° F. and 50-70 percent, respectively. Aphids which fell onto the paper and were unable to remain standing after being uprighted were considered dead. Aphids remaining on the plants were observed closely for movement and those which were unable to move the length of the body upon stimulation by prodding were considered dead. Percent mortality was recorded for various concentration levels.

[8] = test system: mites and insects; assay: Pesticidal activity against mites and insects (general statement); details: in vivo
Procedure: Selected species of the new compounds were evaluated in comparison with known similar prior art compounds to determine their pesticidal activity against mites and certain insects, including an aphid, a caterpillar, a beetle and a fly. The new compounds were further evaluated for mammalian toxicity.

[9] = test system: important economic crops; assay: Phytotoxicity against important economic crops
[10] = leaf spray, ppm required for 50% kill, three days
[11] = bait test, ppm required for 50% kill, twenty four hours
[12] = foliage spray, ppm required for 50% kill, six days
[13] = LD50 value (mammalian toxicity), peroral, unit inferred
[14] = Rat LD50, peroral, dose for mortality rate of 50 percent
[15] = foliage spray, ppm required for 50% kill, 24 hour holding period

Row | SMILES | LC50 [1, 10] | LC50 [2, 11] | LC50 [3, 12] | LC50 [4, 10] | mammalian toxicity (in words) [5] | LD50 [6, 13] | LD50 [6, 14] | LC50 [7, 15] | LC50 [1] | pesticidal activity against mites and insects (in words) [8] | LC50 [2] | LC50 [3] | LC50 [4] | LC50 ([7]; 24 h) | insecticidal activity against bean beetle (in words) ([1]; in vivo) | phytotoxicity (in words) [9] | insecticidal activity against south armyworm (in words) ([4]; in vivo) | times less toxic to mammals than parent compound (compound 1) ([5]; rat LD50 ratio vs compound 1) | times less toxic to mammals than 4-methylphenylthiosulfenyl derivative (compound 2) ([5]; rat LD50 ratio vs compound 2) | insecticidal activity against aphid (in words) ([7]; in vivo)
1 | CNC(=O)Oc1cccc2c1OC(C)(C)C2 [Compound 1, 2,2-Dimethyl-2,3-dihydro-7-(N-methylcarbamoyloxy)benzofuran] | 12 µg/mL (≈ 54.2 µM) | 12 µg/mL (≈ 54.2 µM) | 175 µg/mL (≈ 791 µM) | 90 µg/mL (≈ 407 µM) | unacceptable levels of mammaliam toxicity | 8 to 14 mg/kg | 8 to 14 mg/kg | 2 µg/mL (≈ 9.04 µM) |  |  |  |  |  |  |  |  |  |  |  | 
2 | Cc1ccc(SSN(C)C(=O)Oc2cccc3c2OC(C)(C)C3)cc1 [Compound 2, 2,2-Dimethyl-2,3-dihydro-7-[N-methyl-N-(4-methylphenyl-thiosulfenyl)carbamoyloxy]benzofuran] |  |  |  |  |  | 20 mg/kg | 20 mg/kg |  | 4 µg/mL (≈ 10.7 µM) | levels generally comparable to those of the parent compounds | 21 µg/mL (≈ 55.9 µM) | 130 µg/mL (≈ 346 µM) | ~25 µg/mL (≈ 66.6 µM) | 1.4 µg/mL (≈ 3.73 µM) |  |  |  |  |  | 
3 | CN(SSc1ccc(C(C)(C)C)cc1)C(=O)Oc1cccc2c1OC(C)(C)C2 [Compound 3, 2,2-Dimethyl-2,3-dihydro-7-[N-methyl-N-(4-tert-butylphenylthiosulfenyl)carbamoyloxy] benzofuran] |  |  |  |  | extremely low mammalian toxicity | 453 mg/kg | 453 mg/kg |  | 5 µg/mL (≈ 12 µM) |  | < 17 µg/mL | > 500 µg/mL | 40 µg/mL (≈ 95.8 µM) | 3 µg/mL (≈ 7.18 µM) | exceptionally high level of insecticidal activity | low phytotoxicity | exceptionally high level of insecticidal activity | at least 38 times | at least 23 times | exceptionally high level of insecticidal activity
4 | CC(C)Oc1ccccc1OC(=O)N(C)SSc1ccc(C(C)(C)C)cc1 [Compound 4, 2-Isopropoxy-[N-methyl-N-(4-tert-butylphenylthiosulfenyl)carbamoyloxy]benzene] |  |  |  |  | very low level of mammalian toxicity | > 640 mg/kg | 640 mg/kg |  | 11 µg/mL (≈ 27.1 µM) |  | 110 µg/mL (≈ 271 µM) | > 500 µg/mL | 250 µg/mL (≈ 616 µM) | 22 µg/mL (≈ 54.2 µM) |  | extremely low phytotoxicity |  |  |  | 
5 | CNC(=O)Oc1ccccc1OC(C)C [Compound 5, 2-Isopropoxy-(N-methyl-carbamoyloxy)benzene] | 12 µg/mL (≈ 57.3 µM) | 16 µg/mL (≈ 76.5 µM) | > 500 µg/mL | 500 µg/mL (≈ 2390 µM) |  | 95 to 104 mg/kg | 95 to 104 mg/kg | 16 µg/mL (≈ 76.5 µM) |  |  |  |  |  |  |  |  |  |  |  | 
